Patent US11286268B1, “EIF4E-inhibiting compounds and methods” (EFFECTOR THERAPEUTICS, INC., priority 2019, dated 2022)
Where two headings read alike, the source gives them in different places.

Biological target: recombinant eIF4E (Homo sapiens (Human), UniProt P06730)
Assay: Fluorescence polarization competition assay for eIF4E binding potency
Method in brief: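 FP readout; IC50 fit from 8-point, 3-fold series. 75 nM eIF4E + 20 nM ATTO-550-labelled m7GDP probe, Tris pH 7.5/NaCl/DTT/Tween buffer, 1% DMSO final. 30 min RT equilibration, light-protected.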

[1] = fluorescence polarization competition, 75 nM recombinant eIF4E, 20 nM EDA-m7GDP-ATTO-550, IC50 class, read-out: elF4E FP
[2] = inhibition of eIF4E/EDA-m7GDP-ATTO-550 binding by 50%, Table 4B calculated values, read-out: IC50

Chain of recombinant eIF4E (P06730 whole entry): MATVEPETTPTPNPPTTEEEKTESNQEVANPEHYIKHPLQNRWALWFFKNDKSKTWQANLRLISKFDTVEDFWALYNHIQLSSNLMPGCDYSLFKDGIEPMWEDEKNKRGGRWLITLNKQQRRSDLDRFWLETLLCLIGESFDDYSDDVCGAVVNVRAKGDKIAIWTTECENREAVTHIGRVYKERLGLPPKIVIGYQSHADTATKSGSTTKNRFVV

SMILES	IC50 [1] [µM]	IC50 [2] [µM]
Cc1nc2cc(C(F)(F)F)c(CN(C)C)c(C#N)c2c(=O)n1CC#Cc1ccc(Cl)cc1-c1ccnc2c(C(=O)O)csc12 [compound 553]	< 0.05	0.0134
Cc1nc2cc(C(F)(F)F)c(Cl)c(C#N)c2c(=O)n1CC#Cc1ccc(Cl)cc1-c1ccnc2c(C(=O)O)csc12 [compound 554]	< 0.05	0.0318
Cc1sc2c(-c3cc(Cl)ccc3OCCn3c(C)nc4cc(C(F)(F)F)c(Cl)c(C#N)c4c3=O)ccnc2c1C(=O)O [compound 555]	< 0.05	0.0108
Cc1sc2c(-c3cc(Cl)ccc3OCCn3c(C)nc4cc(C(F)(F)F)c(CN(C)C)c(C#N)c4c3=O)ccnc2c1C(=O)O [compound 556]	< 0.05	0.0227
Cc1nc2c(F)cc(C(F)F)c(C#N)c2c(=O)n1CC#Cc1ccc(Cl)cc1-c1ccnc2c(C(=O)O)csc12 [compound 557]	< 0.05	0.0064
Cc1cc(-c2cc(Cl)ccc2OCCn2c(C)nc3cc(C(F)(F)F)c(Cl)c(C#N)c3c2=O)c2scc(C(=O)O)c2n1 [compound 558]	< 0.05	0.0272
Cc1cc(-c2cc(Cl)ccc2OCCn2c(C)nc3cc(C(F)(F)F)c(CN(C)C)c(C#N)c3c2=O)c2scc(C(=O)O)c2n1 [compound 559]	< 0.05	0.00869
Cc1cc(-c2cc(Cl)ccc2C#CCn2c(C)nc3cc(C(F)(F)F)cc(C#N)c3c2=O)c2scc(C(=O)O)c2n1 [compound 560]	< 0.05	0.00477
Cc1cc(-c2cc(Cl)ccc2C#CCn2c(C)nc3cc(C(F)(F)F)c(Cl)c(C#N)c3c2=O)c2scc(C(=O)O)c2n1 [compound 561]	0.05 to 1	0.0562
Cc1cc(-c2cc(Cl)ccc2C#CCn2c(C)nc3cc(C(F)(F)F)c(CN(C)C)c(C#N)c3c2=O)c2scc(C(=O)O)c2n1 [compound 562]	< 0.05	0.00878
Cc1nc2cc(C(F)(F)F)cc(C#N)c2c(=O)n1CCOc1ccc(Cl)cc1-c1cc(C(F)F)nc2c(C(=O)O)csc12 [compound 563]	< 0.05	0.0144
Cc1ccc(-c2cc(Cl)ccc2OCCn2c(C)nc3cc(C(F)(F)F)c(CN(C)C)c(C#N)c3c2=O)c2scc(C(=O)O)c12 [compound 564]	< 0.05	0.0405
Cc1cc(-c2cc(Cl)ccc2OCCn2c(C)nc3cc(C(F)(F)F)cc(C#N)c3c2=O)c2scc(C(=O)NS(C)(=O)=O)c2n1 [compound 565]	< 0.05	0.0297
Cc1cc(-c2cc(Cl)ccc2OCCn2c(C)nc3c(F)cc(C(F)F)c(C#N)c3c2=O)c2scc(C(=O)NS(C)(=O)=O)c2n1 [compound 566]	< 0.05	0.0164
Cc1cc(-c2cc(Cl)ccc2OCCn2c(C)nc3cc(F)c(F)c(C#N)c3c2=O)c2scc(C(=O)NS(C)(=O)=O)c2n1 [compound 567]	< 0.05	0.0117
Cc1cc(-c2cc(Cl)ccc2OCCn2c(C)nc3cc(C(F)(F)F)c(CN(C)C)c(C#N)c3c2=O)c2scc(C(=O)NS(C)(=O)=O)c2n1 [compound 568]	< 0.05	0.0141
Cc1nc2cc(C(F)(F)F)cc(C#N)c2c(=O)n1CCOc1ccc(Cl)cc1-c1ccnc2c(C(=O)NS(C)(=O)=O)csc12 [compound 569]	< 0.05	0.002
CC(=O)NS(=O)(=O)c1csc2c(-c3cc(Cl)ccc3OCCn3c(C)nc4c(F)cc(C(F)F)c(C#N)c4c3=O)cc(C)nc12 [compound 570]	< 0.05	0.00557
Cc1cc(-c2cc(Cl)c(F)cc2OCCn2c(C)nc3cc(C(F)(F)F)cc(C#N)c3c2=O)c2scc(C(=O)O)c2n1 [compound 571]	0.05 to 1	0.0548
Cc1ccc2nc(C)n(CCOc3ccc(Cl)cc3-c3ccnc4c(C(=O)O)csc34)c(=O)c2c1C#N [compound 572]	< 0.05	0.0306
Cc1cc(C#N)c2c(=O)n(CCOc3ccc(Cl)cc3-c3ccnc4c(C(=O)O)csc34)c(C)nc2c1 [compound 573]	0.05 to 1	0.0547
Cc1ccc(C#N)c2c(=O)n(CCOc3ccc(Cl)cc3-c3ccnc4c(C(=O)O)csc34)c(C)nc12 [compound 574]	0.05 to 1	0.0575

The next lines start with the values.

IC50 [1] [µM]	IC50 [2] [µM]	SMILES
< 0.05	0.0257	Cc1nc2ccc(CCN(C)C)c(C#N)c2c(=O)n1CCOc1ccc(Cl)cc1-c1cc(OC(F)F)nc2c(C(=O)O)csc12 [compound 575]
< 0.05	0.0177	Cc1ccc(-c2cc(Cl)ccc2OCCn2c(C)nc3ccc(CCN(C)C)c(C#N)c3c2=O)c2scc(C(=O)O)c12 [compound 576]
< 0.05	0.0394	Cc1nc2ccc(CCN(C)C)c(C#N)c2c(=O)n1CCOc1ccc(Cl)cc1-c1ccc(C(F)F)c2c(C(=O)O)csc12 [compound 577]
< 0.05	0.032	Cc1nc2ccc(CCN(C)C)c(C#N)c2c(=O)n1CCOc1ccc(Cl)cc1-c1ccc(C(F)(F)F)c2c(C(=O)O)csc12 [compound 578]
< 0.05	0.0302	Cc1cc(-c2cc(Cl)ccc2OCCn2c(C)nc3cc(OC(F)F)cc(C#N)c3c2=O)c2scc(C(=O)O)c2n1 [compound 579]
< 0.05	0.0242	Cc1cc(-c2cc(Cl)ccc2OCCn2c(C)nc3cc(OC(F)F)cc(C#N)c3c2=O)c2scc(C(=O)NS(C)(=O)=O)c2n1 [compound 580]
< 0.05	0.0127	Cc1cc(-c2cc(Cl)ccc2OCCn2c(C)nc3cc(Cl)c(Cl)c(C#N)c3c2=O)c2scc(C(=O)O)c2n1 [compound 582]
< 0.05	0.0159	Cc1cc(-c2cc(Cl)ccc2OCCn2c(C)nc3ccc(OC(F)(F)F)c(C#N)c3c2=O)c2scc(C(=O)O)c2n1 [compound 583]
< 0.05	0.0235	Cc1cc(-c2cc(Cl)ccc2OCCn2c(C)nc3ccc(CCN(C)C)c(C#N)c3c2=O)c2scc(C(=O)O)c2n1 [compound 584]
< 0.05	0.0296	Cc1cc(-c2cc(Cl)ccc2OCCn2c(C)nc3cc(OC(F)F)c(F)c(C#N)c3c2=O)c2scc(C(=O)O)c2n1 [compound 585]
< 0.05	0.05	Cc1cc(-c2cc(Cl)ccc2OCCn2c(C)nc3cc(Cl)c(C(F)F)c(C#N)c3c2=O)c2scc(C(=O)O)c2n1 [compound 586]
< 0.05	0.0255	Cc1cc(-c2cc(Cl)ccc2OCCn2c(C)nc3c(F)cc(C(F)F)c(C#N)c3c2=O)c2scc(C(=O)O)c2n1 [compound 587]
< 0.05	0.0493	Cc1cc(-c2cc(Cl)ccc2OCCn2c(C)nc3c(F)cc(Cl)c(C#N)c3c2=O)c2scc(C(=O)O)c2n1 [compound 588]
< 0.05	0.00445	Cc1cc(-c2cc(Cl)ccc2OCCn2c(C)nc3c(F)c(C(F)(F)F)cc(C#N)c3c2=O)c2scc(C(=O)O)c2n1 [compound 589]
< 0.05	0.00226	Cc1nc2cc(C(F)(F)F)cc(C#N)c2c(=O)n1CCOc1ccc(Cl)cc1-c1cn(C)c(=O)c2c(C(=O)O)csc12 [compound 590]
< 0.05	0.0449	CCc1sc2c(-c3cc(Cl)ccc3OCCn3c(C)nc4cc(C(F)(F)F)cc(C#N)c4c3=O)ccnc2c1C(=O)O [compound 591]
< 0.05	0.0103	Cc1cc(-c2cc(Cl)ccc2OCCn2c(C)nc3cc(OC(F)F)c(CCN(C)C)c(C#N)c3c2=O)c2scc(C(=O)O)c2n1 [compound 592]
